From ChEMBL document CHEMBL1201862, “PubChem BioAssay data set” (2004)
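Exposure lasted 48 hours, with cells grown in 96-well plates and compounds tested at five concentrations. GI50 marks 50% less growth.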 Calls of active or inactive are those of the source. Rule as the data show it: active = GI50 up to about 1.1 µM and inactive = higher.

What was measured:
Test in all cases: growth of human tumour cells (NCI), 48 h
[1] = test system: COLO 205
[2] = test system: DMS-273
[3] = test system: EKVX
[4] = test system: HCT-116
[5] = test system: HCT-15
[6] = test system: HT-29
[7] = test system: K562
[8] = test system: KM-20L2
[9] = test system: NCI-H460
[10] = test system: RPMI-8226
[11] = test system: SK-MEL-5
[12] = test system: SK-OV-3
[13] = test system: SN12C
[14] = test system: TK-10
[15] = test system: UACC-62
[16] = test system: UO-31
[17] = test system: MOLT-4
[18] = test system: DU-145
[19] = test system: Hs-578T
[20] = test system: PC-3

Structure (SMILES) | GI50 [1] | GI50 [2] | GI50 [3] | GI50 [4] | GI50 [5] [µM] | GI50 [6] | GI50 [7] | GI50 [8] | GI50 [9] | GI50 [10] | GI50 [11] | GI50 [12] | GI50 [13] | GI50 [14] | GI50 [15] | GI50 [16] | GI50 [17] | GI50 [18] | GI50 [19] | GI50 [20]
CCOC(=O)C1=C(NC)OCC1=O | > 100 µM (inactive) | > 100 µM (inactive) | > 100 µM (inactive) | > 100 µM (inactive) | > 100 | > 100 µM (inactive) | > 100 µM (inactive) | > 100 µM (inactive) | > 100 µM (inactive) | > 100 µM (inactive) | > 100 µM (inactive) | > 100 µM (inactive) | > 100 µM (inactive) | > 100 µM (inactive) | > 100 µM (inactive) | > 100 µM (inactive) | – | – | – | –
O=C(O)C(Cl)(Cl)Cl | > 100 µM (inactive) | > 100 µM (inactive) | > 100 µM (inactive) | > 100 µM (inactive) | > 100 | – | > 100 µM (inactive) | > 100 µM (inactive) | > 100 µM (inactive) | > 100 µM (inactive) | > 100 µM (inactive) | > 100 µM (inactive) | > 100 µM (inactive) | > 100 µM (inactive) | – | > 100 µM (inactive) | > 100 µM (inactive) | – | – | –
COC(=O)[C@H](Cc1ccccc1)NC(=O)/C(=C/C(C)C)NC(=O)[C@H](CCSC)NC=O | > 100 µM (inactive) | > 100 µM (inactive) | > 100 µM (inactive) | > 100 µM (inactive) | > 100 | > 100 µM (inactive) | > 100 µM (inactive) | > 100 µM (inactive) | > 100 µM (inactive) | > 100 µM (inactive) | > 100 µM (inactive) | > 100 µM (inactive) | > 100 µM (inactive) | > 100 µM (inactive) | > 100 µM (inactive) | > 100 µM (inactive) | > 100 µM (inactive) | – | – | –
O=C1c2ccccc2CCCCCCCCCCC12OCCCO2 | 19.2 µM (inactive) | 70.5 µM (inactive) | – | 16 µM (inactive) | 25.8 | 15.1 µM (inactive) | 68.4 µM (inactive) | 22.9 µM (inactive) | 26.4 µM (inactive) | 15.5 µM (inactive) | 35.6 µM (inactive) | 80.5 µM (inactive) | 55 µM (inactive) | > 100 µM (inactive) | 82.2 µM (inactive) | 79.3 µM (inactive) | 17.7 µM (inactive) | – | – | –
COC1(Cc2ccccc2)C(=O)c2ccccc2N1C(C)=O (stereo unspecified) | > 100 µM (inactive) | > 100 µM (inactive) | > 100 µM (inactive) | > 100 µM (inactive) | > 100 | > 100 µM (inactive) | > 100 µM (inactive) | > 100 µM (inactive) | > 100 µM (inactive) | > 100 µM (inactive) | – | > 100 µM (inactive) | > 100 µM (inactive) | – | > 100 µM (inactive) | > 100 µM (inactive) | > 100 µM (inactive) | – | – | –
CCOc1ccc(C2=C(Cl)c3cc(OC)c(OC)cc3C2Cl)cc1 (stereo unspecified) | 63.5 µM (inactive) | 37.9 µM (inactive) | 66.7 µM (inactive) | – | 27.1 | 32.1 µM (inactive) | > 10 µM (inactive) | 38.8 µM (inactive) | 29.3 µM (inactive) | 21.3 µM (inactive) | 18.3 µM (inactive) | > 100 µM (inactive) | 42.4 µM (inactive) | 79.8 µM (inactive) | 26.2 µM (inactive) | 45 µM (inactive) | 19.5 µM (inactive) | – | – | –
C/C(=N\NC(=S)Nc1ccc([N+](=O)[O-])cc1S(=O)(=O)O)c1ccccn1 | 36.5 µM (inactive) | 37 µM (inactive) | 37.9 µM (inactive) | 28.4 µM (inactive) | 37.6 | 34.6 µM (inactive) | 41.1 µM (inactive) | 26.3 µM (inactive) | 25.7 µM (inactive) | 40 µM (inactive) | 57.8 µM (inactive) | – | 59 µM (inactive) | 37.4 µM (inactive) | 73.8 µM (inactive) | 45.6 µM (inactive) | 40.1 µM (inactive) | – | – | –
CCCCCC(=O)c1ccc2[nH]c3c(C)cc([N+](=O)[O-])c(C)c3c2c1 | 59.6 µM (inactive) | 27.9 µM (inactive) | > 100 µM (inactive) | 90.8 µM (inactive) | > 100 | 75 µM (inactive) | 25.4 µM (inactive) | – | 82 µM (inactive) | > 100 µM (inactive) | > 100 µM (inactive) | – | > 100 µM (inactive) | 26.6 µM (inactive) | – | > 100 µM (inactive) | > 100 µM (inactive) | – | – | –
O=C(CC(=O)c1ccccc1)CC(O)(c1ccccc1)c1ccccc1 | 10.5 µM (inactive) | – | 6.1 µM (inactive) | 4.59 µM (inactive) | 4.89 | 10.4 µM (inactive) | 2.47 µM (inactive) | 5.25 µM (inactive) | 2.33 µM (inactive) | 4.05 µM (inactive) | 3.52 µM (inactive) | 9.31 µM (inactive) | 4.99 µM (inactive) | 9.82 µM (inactive) | 3.21 µM (inactive) | 5.7 µM (inactive) | 1.88 µM (inactive) | – | – | –
O=c1cc[nH]c2c1ccc1ncccc12 | > 100 µM (inactive) | > 100 µM (inactive) | > 100 µM (inactive) | > 100 µM (inactive) | > 100 | > 100 µM (inactive) | > 100 µM (inactive) | > 100 µM (inactive) | > 100 µM (inactive) | – | > 100 µM (inactive) | > 100 µM (inactive) | > 100 µM (inactive) | > 100 µM (inactive) | > 100 µM (inactive) | > 100 µM (inactive) | > 100 µM (inactive) | – | – | –
CCOC(=O)/C=C/n1c2ccccc2c(=O)c2cc(OC)ccc21 | > 100 µM (inactive) | 49 µM (inactive) | > 100 µM (inactive) | 90.6 µM (inactive) | 39.9 | 38.5 µM (inactive) | > 100 µM (inactive) | > 100 µM (inactive) | > 100 µM (inactive) | – | > 100 µM (inactive) | > 100 µM (inactive) | > 100 µM (inactive) | 74.5 µM (inactive) | > 100 µM (inactive) | > 100 µM (inactive) | > 100 µM (inactive) | – | – | –
CC(C)Cc1ccc(C(C)C(=O)N2CCN(/C=C/c3ccccc3)CC2)cc1 (stereo unspecified) | 15.4 µM (inactive) | 11.4 µM (inactive) | 15.8 µM (inactive) | 13.4 µM (inactive) | 13.8 | 14.7 µM (inactive) | 5.58 µM (inactive) | 15.5 µM (inactive) | 16.1 µM (inactive) | 5.04 µM (inactive) | 12.1 µM (inactive) | 16.6 µM (inactive) | 15.8 µM (inactive) | – | 13.4 µM (inactive) | 10.5 µM (inactive) | 6.15 µM (inactive) | – | – | –
CC(=O)C(CN(C)C)C(c1ccccc1)c1c(O)c2ccccc2oc1=O (stereo unspecified) | > 100 µM (inactive) | > 100 µM (inactive) | > 100 µM (inactive) | > 100 µM (inactive) | > 100 | > 100 µM (inactive) | > 100 µM (inactive) | > 100 µM (inactive) | > 100 µM (inactive) | > 100 µM (inactive) | > 100 µM (inactive) | > 100 µM (inactive) | > 100 µM (inactive) | > 100 µM (inactive) | > 100 µM (inactive) | – | > 100 µM (inactive) | – | – | –
CC12CCC(C(=O)N3CC=CCC3)(OC1=O)C2(C)C (stereo unspecified) | > 100 µM (inactive) | > 100 µM (inactive) | > 100 µM (inactive) | > 100 µM (inactive) | > 100 | > 100 µM (inactive) | > 100 µM (inactive) | > 100 µM (inactive) | > 100 µM (inactive) | > 100 µM (inactive) | > 100 µM (inactive) | > 100 µM (inactive) | > 100 µM (inactive) | – | > 100 µM (inactive) | > 100 µM (inactive) | > 100 µM (inactive) | – | – | –
COC(=O)c1ccc(/N=N/N(C)COc2ccc(Br)cc2)cc1 | > 100 µM (inactive) | > 89.9 µM (inactive) | > 75.2 µM (inactive) | > 100 µM (inactive) | > 89.7 | 49.3 µM (inactive) | 38.1 µM (inactive) | > 81.1 µM (inactive) | 40.6 µM (inactive) | 24.5 µM (inactive) | 55.3 µM (inactive) | > 100 µM (inactive) | 68.5 µM (inactive) | – | 60 µM (inactive) | > 100 µM (inactive) | 26.6 µM (inactive) | – | – | –
O=c1cc2ccccc2nn1Cc1ccccc1Cl | > 100 µM (inactive) | > 100 µM (inactive) | > 100 µM (inactive) | > 100 µM (inactive) | > 100 | > 100 µM (inactive) | 85.3 µM (inactive) | > 100 µM (inactive) | > 100 µM (inactive) | 92.5 µM (inactive) | > 100 µM (inactive) | > 100 µM (inactive) | > 100 µM (inactive) | > 100 µM (inactive) | 89.7 µM (inactive) | 29.5 µM (inactive) | – | – | – | –
COc1cc(Cc2cc(OC)c(OC)c(OC)c2)ccc1O | 77.8 µM (inactive) | – | 27 µM (inactive) | 5.19 µM (inactive) | 3.28 | 34.8 µM (inactive) | 3.61 µM (inactive) | 36.5 µM (inactive) | – | 8.39 µM (inactive) | 3.85 µM (inactive) | 39.4 µM (inactive) | 21.8 µM (inactive) | 88.5 µM (inactive) | 9.95 µM (inactive) | 52.6 µM (inactive) | 4.27 µM (inactive) | – | – | –
CC(C)(C)OC(=O)C1=C(C(=O)OC(C)(C)C)SC2(S1)C(C(=O)OC(C)(C)C)=C(C(=O)OC(C)(C)C)Sc1c2ssc1=O | 62.7 µM (inactive) | – | 79.3 µM (inactive) | 47.3 µM (inactive) | > 100 | 86.5 µM (inactive) | 41.3 µM (inactive) | – | 51.2 µM (inactive) | 48.1 µM (inactive) | > 100 µM (inactive) | > 100 µM (inactive) | 38.3 µM (inactive) | > 100 µM (inactive) | 31.3 µM (inactive) | 56.8 µM (inactive) | 7.67 µM (inactive) | 31 µM (inactive) | 75.5 µM (inactive) | 41 µM (inactive)
